Measured values taken from patent publication US10287267B2, “Isoquinolin-3-yl carboxamides and preparation and use thereof” (Samumed, LLC, priority 2016, dated 2019).
Like-named read-outs stand apart in the source and are kept apart here.

How the values were obtained:
[1] = test system: SW480 colon carcinoma cells; experiment: Cell viability assay (CellTiter-Glo); assay type: cell-based, human; conditions: Homo sapiens; for EC50: 96 h, SW480 cells, CellTiter-Glo, four days incubation; for inhibition at 10 µM: SW480, read-out: percent inhibition at 10 μM
recombinant GSK3β kinase = recombinant GSK3β kinase (Homo sapiens (Human), UniProt P49841); experiment: GSK3β kinase assay (Ser/Thr 09 peptide Z-lyte FRET); assay type: biochemical; conditions: 46 μM ATP, 1 h room temperature;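 further: kinase activity read as coumarin to fluorescein emission ratio, 11-point threefold dilutions from 10 µM to 0.0003 µM in duplicate, unphosphorylated and phosphorylated peptide as 0% and 100% controls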
recombinant GSK3β kinase, sequence (P49841 whole entry): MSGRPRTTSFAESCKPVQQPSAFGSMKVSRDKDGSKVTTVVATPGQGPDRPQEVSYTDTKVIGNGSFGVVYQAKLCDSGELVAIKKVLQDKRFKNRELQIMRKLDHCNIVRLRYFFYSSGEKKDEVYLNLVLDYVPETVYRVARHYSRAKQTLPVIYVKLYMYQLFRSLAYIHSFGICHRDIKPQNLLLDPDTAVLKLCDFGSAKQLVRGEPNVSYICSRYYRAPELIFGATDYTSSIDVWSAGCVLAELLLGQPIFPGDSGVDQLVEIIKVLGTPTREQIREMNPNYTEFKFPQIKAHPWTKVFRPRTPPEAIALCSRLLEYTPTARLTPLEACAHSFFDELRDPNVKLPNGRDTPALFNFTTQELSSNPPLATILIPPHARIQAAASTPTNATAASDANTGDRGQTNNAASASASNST

[2] = test system: Tau phosphorylation at Ser396 (pSer396); experiment: Tau phosphorylation assay (pSer396 ELISA / western blot) in SH-SY5Y cells; assay type: cell-based, human; conditions: Homo sapiens, read-out: pSer396 Tau EC50;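 further: EC50 for reduction of Tau pSer396 in lysed cells, measured by colorimetric ELISA or chemiluminescent western blot, both using the same pSer396 antibody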
[3] = test system: α-smooth muscle actin (αSMA) positive LL29 cells; experiment: Inhibition of fibrotic process: αSMA in TGF-β1 treated primary human fibroblasts from IPF patients; assay type: cell-based; conditions: Homo sapiens, Fibroblast; for EC50: 96 h, Table 8, LL29 fibroblasts from IPF patients, TGF-β1 20 ng/mL, 4 days, dose-response 10 μM to 0.94 nM; for inhibition at 10 µM: read-out: percent value in parentheses beside EC50 >10 μM;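 on all read-outs here: controls were TGF-β1 stimulated wells with DMSO vehicle (positive) and cells given DMSO alone (negative), cultured in F12 medium with 1% fetal bovine serum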
[4] = test system: Wnt pathway (Sp5-Luc reporter, TCF/LEF binding sites) in SW480 colon carcinoma cells; experiment: Screening assay for Wnt activity: Sp5-Luc reporter gene assay; assay type: cell-based, human; conditions: Homo sapiens; for EC50: Sp5-Luc reporter, SW480 cells, 36 to 48 hours; for inhibition at 10 µM: SW480, read-out: percent inhibition at 10 μM;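 on all read-outs here: firefly luciferase luminescence read in stably transduced SW480 cells carrying the Sp5 promoter reporter with eight TCF/LEF sites, compounds given in 0.1% DMSO final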
Experimental: The screening assay for Wnt activity is described as follows.
Following incubation, 15 μl of BriteLite Plus luminescence reagent (Perkin Elmer) was added to each well of the 384-well assay plates. The plates were placed on an orbital shaker for 2 min and then luminescence was quantified using the Envision (Perkin Elmer) plate reader.

IL-6 = IL-6 inhibition in LPS-stimulated human peripheral blood mononuclear cells (HTRF); assay type: cell-based; conditions: Homo sapiens, PBMC; for EC50: Table 9, huPBMCs, LPS 50 ng/mL, 22 hours, dose-response starting from 10 μM; for inhibition at 10 µM: read-out: percent value in parentheses beside EC50 >10 μM;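 on all read-outs here: IL-6 detected by HTRF with an XL665- and Cryptate-labelled anti-IL-6 antibody pair, samples run in duplicate, EC50 obtained from a four-parameter Levenberg-Marquardt curve fit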
Experimental: After 22 hour incubation, a mixture of anti-IL6 XL665 and anti-IL-6 Cryptate diluted in reconstitution buffer (Catalog #62IL6PEC, Cisbio Inc., Bedford, Mass.) was added to each well. […] All samples were processed in duplicate. […] EC50 was determined using software generated by Dotmatics Limited (Windhill Bishops Stortford Herts, UK) using the Levenberg-Marquardt 4 parameter fitting procedure with finite different gradients.

[5] = target: recombinant DYRK1A kinase (Homo sapiens (Human), UniProt Q13627); experiment: DYRK1A kinase assay (Ser/Thr 18 peptide Z-lyte FRET); assay type: biochemical; conditions: 30 μM ATP, 1 h room temperature;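 further: Read-out is the coumarin to fluorescein emission ratio, referenced to unphosphorylated (0%) and phosphorylated (100%) Ser/Thr 18 peptide controls, values from dose-response curves by non-linear regression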
[6] = SH-SY5Y cells, overnight (16-18 h) exposure

Row | SMILES | EC50 [1] [nM] | EC50 (recombinant GSK3β kinase) [nM] | EC50 [2, 6] [nM] | EC50 [3] [nM] | inhibition at 10 µM [3] [%] | EC50 [4] [nM] | EC50 (IL-6) [nM] | EC50 [5] [nM] | inhibition at 10 µM (IL-6) [%] | inhibition at 10 µM [1] [%] | inhibition at 10 µM [4] [%] | EC50 ([2]; SH-SY5Y) [nM]
1 | CC(C)OCCC(=O)Nc1cc2cc(-c3cncn3C)ccc2cn1 [Compound 1009, 3-Isopropoxy-N-(6-(1-methyl-1H-imidazol-5-yl)isoquinolin-3-yl) propanamide] | 2350 | 15 | 68 | > 10000 | 22.4 | 1110 | 1840 | 6.2 |  |  |  | 
2 | COC(=O)CN1CCC(C(=O)Nc2cc3cc(-c4cnn(C)c4)ccc3cn2)CC1 [Compound 334, Methyl 2-(4-((6-(1-methyl-1H-pyrazol-4-yl)isoquinolin-3-yl)carbamoyl)piperidin-1-yl)acetate] | 7370 | 47 | 820 | 63 |  | 787 | 263 | 1.6 |  |  |  | 
3 | Cn1cc(-c2ccc3cnc(NC(=O)C4CCN(Cc5ccccn5)CC4)cc3c2)cn1 [Compound 359, N-(6-(1-Methyl-1H-pyrazol-4-yl)isoquinolin-3-yl)-1-(pyridin-2-ylmethyl) piperidine-4-carboxamide] | 261 | 82 | 521 | 127 |  | 669 | 1030 | 3 |  |  |  | 
4 | C[C@H]1CN(CC(=O)Nc2cc3cc(-c4cnn(C)c4)ccc3cn2)CCO1 [Compound 343, (S)—N-(6-(1-Methyl-1H-pyrazol-4-yl)isoquinolin-3-yl)-2-(2-methylmorpholino)acetamide] | 7890 | 71 | 2400 | 446 |  | 3590 | > 10000 | 9.9 | 47.4 |  |  | 
5 | C[C@H]1CCCN1CC(=O)Nc1cc2cc(-c3cnn(C)c3)ccc2cn1 [Compound 290, (S)—N-(6-(1-Methyl-1H-pyrazol-4-yl)isoquinolin-3-yl)-2-(2-methylpyrrolidin-1-yl)acetamide] | 3780 | 75 | 490 | 1060 |  | 5230 | 4780 | 5.8 |  |  |  | 
6 | O=C(Nc1cc2cc(-c3cncs3)ccc2cn1)C1CCN(C2COC2)CC1 [Compound 737, 1-(Oxetan-3-yl)-N-(6-(thiazol-5-yl)isoquinolin-3-yl)piperidine-4-carboxamide] | 4340 | 62 | 865 | 80 |  | 1290 | 1180 | 1 |  |  |  | 
7 | CN(C)[C@H]1CC[C@H](C(=O)Nc2cc3cc(-c4cncs4)ccc3cn2)CC1 [Compound 707, trans-4-(Dimethylamino)-N-(6-(thiazol-5-yl)isoquinolin-3-yl)cyclohexane-1-carboxamide] | 947 | 46 | 449 | 4240 |  | 472 | 446 | 0.9 |  |  |  | 
8 | Cn1cc(-c2ccc3cnc(NC(=O)[C@H]4CC[C@H](N(C)C)CC4)cc3c2)cn1 [Compound 327, trans-4-(Dimethylamino)-N-(6-(1-methyl-1H-pyrazol-4-yl)isoquinolin-3-yl)cyclohexane-1-carboxamide] | 1580 | 66 | 411 | 58 |  | 258 | 947 | 1.7 |  |  |  | 
9 | Cc1ncc(-c2ccc3cnc(NC(=O)CN4CCCC4)cc3c2)s1 [Compound 993, N-(6-(2-Methylthiazol-5-yl)isoquinolin-3-yl)-2-(pyrrolidin-1-yl)acetamide] | 6580 | 87 | 702 | 1490 |  | 7970 | 8840 | 14.7 |  |  |  | 
10 | Cn1cncc1-c1ccc2cnc(NC(=O)[C@H]3CCCO3)cc2c1 [Compound 537, (R)—N-(6-(1-Methyl-1H-imidazol-5-yl)isoquinolin-3-yl)tetrahydrofuran-2-carboxamide] | 8300 | 95 | 451 | 599 |  | 4800 | 1240 | 8.9 |  |  |  | 
11 | CN1CCn2c(-c3ccc4cnc(NC(=O)C5CC5)cc4c3)cnc2C1 [Compound 266, N-(6-(7-Methyl-5,6,7,8-tetrahydroimidazo[1,2-a]pyrazin-3-yl)isoquinolin-3-yl)cyclopropanecarboxamide] | 6320 | 38 | 1200 | 697 |  | 2440 | 1930 | 17.4 |  |  |  | 
12 | Cn1cc(-c2ccc3cnc(NC(=O)C4CC5(CCN(CCF)CC5)C4)cc3c2)cn1 [Compound 301, 7-(2-Fluoroethyl)-N-(6-(1-methyl-1H-pyrazol-4-yl)isoquinolin-3-yl)-7-azaspiro[3.5]nonane-2-carboxamide] | 550 | 10 | 108 | 4810 |  | 467 | 393 | 2 |  |  |  | 
13 | C[C@H]1COCCN1CC(=O)Nc1cc2cc(-c3cnn(C)c3)ccc2cn1 [Compound 341, (S)—N-(6-(1-Methyl-1H-pyrazol-4-yl)isoquinolin-3-yl)-2-(3-methylmorpholino)acetamide] | > 10000 | 89 | 1600 | 2370 |  | 4100 | > 10000 | 5.6 | 46.1 | 33.9 |  | 
14 | Cn1cc(-c2ccc3cnc(NC(=O)CN4CCC(C(F)(F)F)CC4)cc3c2)cn1 [Compound 294, N-(6-(1-Methyl-1H-pyrazol-4-yl)isoquinolin-3-yl)-2-(4-(trifluoromethyl)piperidin-1-yl)acetamide] | 4150 | 41 | 905 | > 10000 | 41.3 | 5190 | 6230 | 12.4 |  |  |  | 
15 | O=C(Nc1cc2cc(-c3cnco3)ccc2cn1)C1CCOCC1 [Compound 976, N-(6-(Oxazol-5-yl)isoquinolin-3-yl)tetrahydro-2H-pyran-4-carboxamide] | 3880 | 146 | 536 | 1170 |  | 2960 |  | 6.1 |  |  |  | 
16 | Cn1cc(-c2ccc3cnc(NC(=O)OC(C)(C)C)cc3c2)cn1 [Compound 1025, tert-Butyl (6-(1-methyl-1H-pyrazol-4-yl)isoquinolin-3-yl)carbamate] |  | 100 | > 10000 | > 10000 | 31.4 | > 10000 | > 10000 | 78 | 13.6 |  |  | 
17 | Cn1cc(-c2ccc3cnc(NC(=O)CN4CCC(C(F)F)CC4)cc3c2)cn1 [Compound 295, 2-(4-(Difluoromethyl)piperidin-1-yl)-N-(6-(1-methyl-1H-pyrazol-4-yl)isoquinolin-3-yl)acetamide] |  | 20 | 430 | 4460 |  | 2570 | > 10000 | 2.8 | 5.9 |  |  | 
18 | CCN(CC)c1ncc(-c2ccc3cnc(NC(=O)CN4CCC(F)CC4)cc3c2)s1 [Compound 1047, N-(6-(2-(Diethylamino)thiazol-5-yl)isoquinolin-3-yl)-2-(4-fluoropiperidin-1-yl)acetamide] | > 10000 | 4740 | > 10000 |  |  | > 10000 | > 10000 | 463 | 4.5 | 41.7 | 32.6 | 
19 | CNc1ncc(-c2ccc3cnc(NC(=O)C4CCNCC4)cc3c2)s1 [Compound 1040, N-(6-(2-(Methylamino)thiazol-5-yl)isoquinolin-3-yl)piperidine-4-carboxamide] | 2680 | 98 | 1600 |  |  | 1210 | 1180 | 4.8 |  |  |  | 
20 | CC(F)(F)CN1CCC(C(=O)Nc2cc3cc(-c4cnco4)ccc3cn2)CC1 [Compound 1057, 1-(2,2-Difluoropropyl)-N-(6-(oxazol-5-yl)isoquinolin-3-yl)piperidine-4-carboxamide] | 4500 | 97 | 342 |  |  | > 10000 | 3200 | 2.7 |  |  | 5 | 
21 | Cc1nnc(-c2ccc3cnc(NC(=O)CN4C5CCC4COC5)cc3c2)s1 [Compound 962, 2-(3-Oxa-8-azabicyclo[3.2.1]octan-8-yl)-N-(6-(5-methyl-1,3,4-thiadiazol-2-yl)isoquinolin-3-yl)acetamide] | > 10000 | 57 |  |  |  | > 10000 | > 10000 | 23.6 | 9.6 | 30.9 | 45 | 447
